# Measurements as given in PMC9133015 (Nature Communications, 2022).
# “And” between values parts separate entries of the source, which are not always exact repeats. Identical values can stand only once. “Also recorded” adds a separate entry of the source.
# Legend:
# DU145 cells [1] = assay: Cell growth assay (5-day course); assay type: cell-based, human; conditions: DU145 cells, dose-dependent
# 22Rv1 cells [2] = assay: Cell growth assay (5-day course); assay type: cell-based, human
# PC-3 cells = assay: Colony formation assay; assay type: cell-based, human; conditions: replicates
# DU145 cells [3] = assay: Colony formation assay; assay type: cell-based, human; conditions: replicates
# 22Rv1 cells [4] = assay: Colony formation assay; assay type: cell-based, human; conditions: replicates
# ICR mice = assay: Acute toxicity study; assay type: in vivo
# PC-3 xenograft = assay: In vivo antitumor activity, PC-3 xenograft mouse model; set-up: species or system BALB/c nude mice; conditions: for body weight (Figure S10b): 100 mg/kg (block headed at r39); for tumor volume (Figure S10a): 100 mg/kg, in mm³ (unit assumed); for tumor weight (Figure S10c): individual mice
# [5] = ICR mice, single oral dose 2500, 5000, 10,000 mg/kg, 14 days
smiles,measurement,setting,value
CCN1CCN(C(=O)c2ccc(Nc3ncc(F)c(-c4ccc5nc(N(C)C)sc5c4)n3)nc2)CC1 [YK-2-69],"cell proliferation, 5-day course/colony (in words)",DU145 cells [1],significantly inhibited the cell proliferation
same,Relative proliferation rate mean,"22Rv1 cells [2]; 22Rv1, 0.5 µM, day 1",1.179
same,Relative proliferation rate mean,"22Rv1 cells [2]; 22Rv1, 0.5 µM, day 2",1.871
same,Relative proliferation rate mean,"22Rv1 cells [2]; 22Rv1, 0.5 µM, day 3",2.62
same,Relative proliferation rate mean,"22Rv1 cells [2]; 22Rv1, 0.5 µM, day 4",3.018
same,Relative proliferation rate mean,"22Rv1 cells [2]; 22Rv1, 1 µM, day 1",1.007
same,Relative proliferation rate mean,"22Rv1 cells [2]; 22Rv1, 1 µM, day 2",1.59
same,Relative proliferation rate mean,"22Rv1 cells [2]; 22Rv1, 1 µM, day 3",1.919
same,Relative proliferation rate mean,"22Rv1 cells [2]; 22Rv1, 1 µM, day 4",2.135
same,Relative proliferation rate mean,"22Rv1 cells [2]; 22Rv1, 2 µM, day 1",0.9977
same,Relative proliferation rate mean,"22Rv1 cells [2]; 22Rv1, 2 µM, day 2",1.414
same,Relative proliferation rate mean,"22Rv1 cells [2]; 22Rv1, 2 µM, day 3",1.775
same,Relative proliferation rate mean,"22Rv1 cells [2]; 22Rv1, 2 µM, day 4",1.902
same,"cell proliferation, 5-day course/colony (in words)","22Rv1 cells [2]; 22Rv1 cells, dose-dependent",significantly inhibited the cell proliferation
same,Colony formation (cell number),PC-3 cells; 1 µM,40 cell number and 45 cell number and 35 cell number
same,Colony formation (cell number),PC-3 cells; 2 µM,10 cell number and 12 cell number and 9 cell number
same,Colony formation (cell number),PC-3 cells; 4 µM,5 cell number and 6 cell number
same,Colony formation (cell number),"DU145 cells [3]; DU145, 2 μM",70 cell number and 67 cell number and 77 cell number
same,Colony formation (cell number),"DU145 cells [3]; DU145, 4 μM",40 cell number and 38 cell number and 35 cell number
same,Colony formation (cell number),"DU145 cells [3]; DU145, 8 μM",15 cell number and 12 cell number and 10 cell number
same,Colony formation (cell number),"22Rv1 cells [4]; 22Rv1, 0.5 μM",93 cell number and 88 cell number and 94 cell number
same,Colony formation (cell number),"22Rv1 cells [4]; 22Rv1, 1 μM",40 cell number and 56 cell number and 58 cell number
same,Colony formation (cell number),"22Rv1 cells [4]; 22Rv1, 2 μM",10 cell number and 9 cell number and 13 cell number
same,"Figure S9b Heart (organ weight, individual mice)",ICR mice; 2500 mg/kg,0.094 and 0.137 and 0.125 and 0.146 and 0.118 and 0.152 and 0.105 and 0.097 and 0.092 and 0.115
same,"Figure S9b Kidney (organ weight, individual mice)",ICR mice; 2500 mg/kg,0.384 and 0.403 and 0.421 and 0.413 and 0.636 and 0.576 and 0.731 and 0.682 and 0.613
same,"Figure S9b Liver (organ weight, individual mice)",ICR mice; 2500 mg/kg,1.351 and 1.216 and 1.284 and 1.094 and 1.159 and 1.384 and 1.751 and 1.369 and 1.52 and 1.491
same,"Figure S9b Lung (organ weight, individual mice)",ICR mice; 2500 mg/kg,0.316 and 0.435 and 0.421 and 0.358 and 0.299 and 0.367 and 0.294 and 0.341 and 0.276 and 0.336
same,"Figure S9b Spleen (organ weight, individual mice)",ICR mice; 2500 mg/kg,0.176 and 0.186 and 0.205 and 0.201 and 0.214 and 0.253 and 0.196 and 0.221 and 0.206 and 0.257
same,Figure S9a body weight of individual mice,"ICR mice; 2500 mg/kg, Day 0",19.9 and 20.5 and 20.1 (2×) and 20 and 19.6 and 19.8 and 20.3 and 20.6 and 21.1
same,Figure S9a body weight of individual mice,"ICR mice; 2500 mg/kg, Day 2",20.2 (2×) and 20.8 and 20.3 (2×) and 20.4 and 19.8 and 20.6 and 20.9 and 21.5
same,Figure S9a body weight of individual mice,"ICR mice; 2500 mg/kg, Day 4",20.8 and 21.3 (2×) and 20.5 and 20.6 (2×) and 20.1 and 20.4 and 21.1 and 21.8
same,Figure S9a body weight of individual mice,"ICR mice; 2500 mg/kg, Day 6",21.3 and 21.7 and 20.6 and 20.8 and 20.2 and 20.7 and 21.5 and 21.9 and 22.2 and 20.9
same,Figure S9a body weight of individual mice,"ICR mice; 2500 mg/kg, Day 8",22.3 and 22.5 and 20.7 and 21.1 and 20.3 and 21 and 21.8 and 22.2 and 22.6 and 21.5
same,Figure S9a body weight of individual mice,"ICR mice; 2500 mg/kg, Day 10",22.9 and 23.2 and 20.9 and 21.4 and 20.5 and 21.3 and 22.2 and 22.5 and 23.4 and 21.9
same,Figure S9a body weight of individual mice,"ICR mice; 2500 mg/kg, Day 12",23.5 and 23.9 and 21.2 and 21.7 and 20.6 and 21.6 and 22.4 (2×) and 22.9 and 23.8
same,Figure S9a body weight of individual mice,"ICR mice; 2500 mg/kg, Day 14",24.2 and 24.5 and 21.4 and 22 and 20.9 and 21.8 and 22.9 (2×) and 23.4 and 24.3
same,"Figure S9b Heart (organ weight, individual mice)",ICR mice; 5000 mg/kg,0.126 and 0.135 and 0.116 and 0.143 and 0.138 and 0.106 and 0.112 and 0.096 and 0.094
same,"Figure S9b Kidney (organ weight, individual mice)",ICR mice; 5000 mg/kg,0.369 and 0.416 and 0.389 and 0.444 and 0.502 and 0.384 and 0.569 and 0.612 and 0.656 and 0.715
same,"Figure S9b Liver (organ weight, individual mice)",ICR mice; 5000 mg/kg,1.316 and 1.128 and 1.421 and 1.266 and 1.156 and 1.841 and 1.669 and 1.581 and 1.384 and 1.492
same,"Figure S9b Lung (organ weight, individual mice)",ICR mice; 5000 mg/kg,0.401 and 0.386 and 0.456 and 0.512 and 0.379 and 0.452 and 0.253 and 0.302 and 0.281 and 0.317
same,"Figure S9b Spleen (organ weight, individual mice)",ICR mice; 5000 mg/kg,0.2 and 0.186 and 0.199 and 0.214 and 0.231 and 0.25 and 0.241 and 0.267
same,Figure S9a body weight of individual mice,"ICR mice; 5000 mg/kg, Day 0",21.4 and 20.5 (3×) and 19.7 and 20.2 and 19.6 and 19.9 and 20.3 and 21.1
same,Figure S9a body weight of individual mice,"ICR mice; 5000 mg/kg, Day 2",21.7 and 20.9 and 19.9 and 20.4 and 19.6 and 20.3 and 20.7 and 20.6 and 21.5 and 20.8
same,"Figure S9b Heart (organ weight, individual mice)",ICR mice; 10000 mg/kg,0.115 and 0.099 and 0.142 and 0.128 and 0.122 and 0.129 and 0.089 and 0.096 and 0.124 and 0.106
same,"Figure S9b Kidney (organ weight, individual mice)",ICR mice; 10000 mg/kg,0.412 and 0.389 and 0.476 and 0.423 and 0.403 and 0.621 and 0.586 and 0.639 and 0.7 and 0.641
same,"Figure S9b Liver (organ weight, individual mice)",ICR mice; 10000 mg/kg,1.352 and 1.294 and 1.186 and 1.416 and 1.222 and 1.613 and 1.358 and 1.429 and 1.61 and 1.389
same,"Figure S9b Lung (organ weight, individual mice)",ICR mice; 10000 mg/kg,0.418 and 0.361 and 0.395 and 0.475 and 0.486 and 0.369 and 0.384 and 0.416 and 0.336 and 0.333
same,"Figure S9b Spleen (organ weight, individual mice)",ICR mice; 10000 mg/kg,0.181 and 0.194 and 0.176 and 0.189 and 0.201 and 0.235 and 0.214 and 0.226 and 0.257
same,maximal tolerable dose,"ICR mice; ICR mice, single oral dose","more than 10,000 mg/kg"
same,abnormality and death,ICR mice; [5],no mice died; also recorded: No abnormality and death were observed
same,body weight and main organs vs control (in words),ICR mice; [5],no difference was detected
same,body weight (Figure S10b),"PC-3 xenograft; day 1, individual mice",19.2 (2×) and 18.5 and 18.7 and 18.4 and 18.1 and 19.9 and 20.5
same,body weight (Figure S10b),"PC-3 xenograft; day 3, individual mice, in g (unit assumed)",19.3 and 18.8 and 19.1 and 19.6 and 18.7 and 18.5 and 20.2 and 21
same,body weight (Figure S10b),"PC-3 xenograft; day 5, individual mice, in g (unit assumed)",19.6 and 19.3 and 19.5 and 20 and 19 and 18.8 and 20.4 and 21.3
same,body weight (Figure S10b),"PC-3 xenograft; day 7, individual mice",19.7 and 19.2 (2×) and 19.8 and 20.2 and 19.1 and 20.7 and 21.6
same,body weight (Figure S10b),"PC-3 xenograft; day 9, individual mice",19.9 and 19.6 (2×) and 20.3 and 20.4 and 19.2 and 21.1 and 22.1
same,body weight (Figure S10b),"PC-3 xenograft; day 11, individual mice, in g (unit assumed)",20.2 and 19.8 and 20.6 and 20.7 and 19.9 and 19.6 and 21.5 and 22.4
same,body weight (Figure S10b),"PC-3 xenograft; day 13, individual mice, in g (unit assumed)",20.7 and 20.1 and 20.9 and 21 and 20.2 and 19.9 and 22 and 22.7
same,body weight (Figure S10b),"PC-3 xenograft; day 15, individual mice, in g (unit assumed)",21.2 and 20.6 and 21.3 and 21.4 and 20.5 and 20.2 and 22.4 and 23.1
same,body weight (Figure S10b),"PC-3 xenograft; day 17, individual mice",21.5 (2×) and 20.9 and 21.7 and 20.7 and 20.5 and 22.6 and 23.4
same,body weight (Figure S10b),"PC-3 xenograft; day 19, individual mice",21.6 and 21.3 and 22.1 and 21.8 and 20.9 (2×) and 22.9 and 23.6
same,body weight (Figure S10b),"PC-3 xenograft; day 21, individual mice, in g (unit assumed)",21.9 and 21.7 and 22.5 and 22 and 21.1 and 20.9 and 23.3 and 24.1
same,body weight (Figure S10b),"PC-3 xenograft; day 23, individual mice, in g (unit assumed)",22.2 and 21.9 and 22.8 and 22.5 and 21.6 and 21.2 and 23.7 and 24.4
same,body weight (Figure S10b),"PC-3 xenograft; day 25, individual mice, in g (unit assumed)",22.4 and 22.2 and 23 and 22.9
same,tumor volume (Figure S10a),"PC-3 xenograft; day 1, individual mice",77.4864 and 92.5301 and 97.1283 and 101.268 and 98.0398 and 97.468 and 73.886 and 80.3144
same,tumor volume (Figure S10a),"PC-3 xenograft; day 3, individual mice",115.765 and 144.425 and 170.933 and 124.316 and 162.987 and 146.332 and 130.957 and 150.238
same,tumor volume (Figure S10a),"PC-3 xenograft; day 5, individual mice",154.192 and 209.47 and 269.793 and 167.67 and 219.907 and 205.492 and 169.178 and 227.654
same,tumor volume (Figure S10a),"PC-3 xenograft; day 7, individual mice",219.658 and 275.568 and 365.875 and 209.513 and 299.159 and 296.64 and 231.386 and 330.578
same,tumor volume (Figure S10a),"PC-3 xenograft; day 9, individual mice",329.162 and 379.473 and 478.428 and 304.962 and 429.596 and 486.382 and 340.579 and 484.285
same,tumor volume (Figure S10a),"PC-3 xenograft; day 11, individual mice",425.31 and 450.313 and 557.222 and 355.841 and 497.266 and 558.451 and 389.654 and 598.443
same,tumor volume (Figure S10a),"PC-3 xenograft; day 13, individual mice",470.277 and 505.24 and 614.643 and 398.947 and 552.456 and 554.825 and 438.407 and 647.336
same,tumor volume (Figure S10a),"PC-3 xenograft; day 15, individual mice",505.825 and 567.155 and 666.998 and 434.631 and 595.348 and 608.437 and 469.076 and 655.028
same,tumor volume (Figure S10a),"PC-3 xenograft; day 17, individual mice",566.789 and 632.783 and 710.893 and 478.638 and 663.313 and 687.885 and 541.191 and 725.155
same,tumor volume (Figure S10a),"PC-3 xenograft; day 19, individual mice",626.915 and 695.75 and 762.842 and 529.26 and 724.582 and 714.002 and 593.545 and 775.769
same,tumor volume (Figure S10a),"PC-3 xenograft; day 21, individual mice",664.022 and 757.202 and 792.305 and 567.096 and 783.549 and 751.035 and 675.845 and 837.844
same,tumor volume (Figure S10a),"PC-3 xenograft; day 23, individual mice",712.611 and 799.725 and 853.619 and 600.587 and 832.37 and 731.016 and 739.798 and 963.73
same,tumor volume (Figure S10a),"PC-3 xenograft; day 25, individual mice",761.381 and 859.669 and 897.54 and 641.932
same,tumor weight (Figure S10c),"PC-3 xenograft; High dose, in g (unit assumed)",0.61 and 0.52 and 0.5 and 0.55 and 0.62 and 0.53 and 0.74 and 0.7
same,tumor weight (Figure S10c),"PC-3 xenograft; Low dose, in g (unit assumed)",0.79 and 0.89 and 1.1 and 0.91 and 0.71 and 0.92 and 0.81 and 0.88
same,tumor growth (in words),"PC-3 xenograft; PC-3 xenograft, 100 or 200 mg/kg orally every day",significantly inhibited tumor growth
same,tumor volume (in words),"PC-3 xenograft; PC-3 xenograft, high dose (200 mg/kg)",decrease tumor volume
